Assay results from US20140242093A1, “METHODS AND COMPOSITIONS FOR MODULATING THE INNATE IMMUNE RESPONSE AND/OR MYOGENESIS IN A MAMMALIAN SUBJECT” (FRED HUTCHINSON CANCER RESEARCH CENTER, priority 2011, published 2014).

Test system: control human primary myoblasts
Assay: Expression microarray of primary myoblasts transduced with lentivirus carrying DUX4-fl, DUX4-s or GFP
Method: Primary human myoblasts were collected and cultured as previously described (Snider et al., 2010). Primary myoblasts were maintained at or below 70% confluency for proliferation. For differentiation, cells were allowed to reach 95-100% confluency in growth medium. Once confluency was reached, the cells were changed to differentiation medium (F10 media supplemented with 1% horse serum, 10 μg/mL insulin, and 10 μg/mL transferrin, penicillin/streptomycin) and maintained for 4 days. Human RD cells were grown in DMEM in 10% bovine calf serum (Hyclone) and penicillin/streptomycin. The primary myoblasts were transduced with lentivirus carrying DUX-fl, DUX4- or GFP (MOI=15).
Expression microarrays were performed on the transduced cells at 24 hours after transduction as follows. […] Samples were analyzed by Illumina Human Whole Genome microarrays. Probe intensities were corrected, normalized, and summarized by the Lumi package of Bioconductor (Du et al., 2008). Differentially expressed genes were identified by the LIMMA package of Bioconductor (Wettenhall and Smyth, 2004). Gene set enrichment analysis (GSEA) was performed using the Bioconductor GOstats package (Falcon and Gentleman, 2007).

With “DUX4-fl: full-length DUX4 protein (SEQ ID NO:110), expressed from lentiviral or pCS2 vectors or in vitro translated” the LOC728450 expression fc (Refseq XM_001131473.2) was 2.474, the RFNG fc (Refseq XM_001132711.1) was −1.116 and the LOC732416 expression fc (Refseq XM_001133386.1) was 2.329. For the same substance, the THOC4 expression fc (Refseq XM_001134346.1) was 4.035, the PRAMEF15 expression fc (Refseq XM_001713659.1) was 7 and the LOC100131392 expression fc (Refseq XM_001713681.1) was 6.976. For the same substance, the LOC100132564 expression fc (Refseq XM_001713808.1) was 3.588, the LOC391769 expression fc (Refseq XM_001713901.1) was 8.19 and the PRAMEF13 expression fc (Refseq XM_001713933.1) was 7.422. The PRAMEF11 expression fc (Refseq XM_001714028.1) was 5.94, the “fc of LOC285296 (expression array)” value (Refseq XM_001714301.1) was −1.042 and the LOC100133588 expression fc (Refseq XM_001714755.1) was 2.2. For the same substance, the CTGLF7 expression fc (Refseq XM_001714786.1) was 3.437, the LOC100129630 expression fc (Refseq XM_001714940.1) was 1.871 and the LOC391763 expression fc (Refseq XM_001715080.1) was 1.963. The LOC642446 expression fc (Refseq XM_001717781.1) was 3.101, the LOC100133446 expression fc (Refseq XM_001717965.1) was 4.635 and the LOC100129165 fc (Refseq XM_001718314.1) was −1.161. For the same substance, the LOC643336 expression fc (Refseq XM_001718563.1) was 1.934, the LOC100129053 expression fc (Refseq XM_001718702.1) was 2.724 and the LOC100130652 expression fc (Refseq XM_001719052.1) was 3.33. For the same substance, the RFPL4A expression fc (Refseq XM_001719234.1) was 4.348, the LOC728809 fc (Refseq XM_001719546.1) was −1.14 and the LOC100134199 expression fc (Refseq XM_001719549.1) was 8.048. For the same substance, the PNMA6B expression fc (Refseq XM_001721351.1) was 3.603, the LOC100133984 expression fc (Refseq XM_001723079.1) was 6.204 and the LOC649330 expression fc (Refseq XM_001723218.1) was 3.101. It also gave an LOC100128202 expression fc (Refseq XM_001723719.1) of 3.711, an LOC100130311 expression fc (Refseq XM_001724111.1) of 2.912 and an LOC100131539 expression fc (Refseq XM_001724873.1) of 4.629. The LOC100134006 expression fc (Refseq XM_001725030.1) was 7.087, the LOC730167 expression fc (Refseq XM_001726158.1) was 3.656 and the LOC100129681 expression fc (Refseq XM_001726834.1, cultured human skeletal muscle) was −4.075. For the same substance, the LOC651709 expression fc (Refseq XM_001732813.1) was 2.304, the LOC727828 expression fc (Refseq XR_015137.1) was 3.054 and the LOC728060 fc (Refseq XR_015272.2) was −1.095. For the same substance, the LOC732393 expression fc (Refseq XR_015873.1) was 4.637, the MGC40489 expression fc (Refseq XR_016048.1) was 2.542 and the LOC643263 expression fc (Refseq XR_016355.1) was 8.345. For the same substance, the LOC441081 expression fc (Refseq XR_017029.1) was 3.764, the LOC647366 expression fc (Refseq XR_018122.1) was 3.783 and the LOC440041 expression fc (Refseq XR_018122.2) was 3.895. The LOC647827 expression fc (Refseq XR_018213.1) was 4.053, the LOC399988 expression fc (Refseq XR_018287.2) was 1.966 and the LOC650215 fc (Refseq XR_018889.1) was −1.139. For the same substance, the “fc of RBMS2P (expression array)” value (Refseq XR_019556.2) was −0.4507, the LOC642148 expression fc (Refseq XR_019607.1) was 6.851 and the LOC650236 expression fc (Refseq XR_036872.1) was 2.915. For the same substance, the LOC100134322 expression fc (Refseq XR_037416.1) was 2.488, the LOC730974 expression fc (Refseq XR_037751.1) was 7.715 and the LOC643445 expression fc (Refseq XR_038080.1) was 8.25. For the same substance, the LOC729516 expression fc (Refseq XR_038445.1) was 5.955, the LOC340970 expression fc (Refseq XR_038494.1) was 8.316 and the LOC645381 expression fc (Refseq XR_038557.1) was 2.089. The LOC728429 expression fc (Refseq XR_038921.1) was 2.178, the LOC645638 fc (Refseq XR_040455.1) was −1.128 and the LOC400464 expression fc (Refseq XR_041115.1) was 2.831. For the same substance, the TRIM53 expression fc (Refseq XR_041244.1) was 4.778, the LOC729009 expression fc (Refseq XR_042330.1, cultured human skeletal muscle) was −2.654 and the “number of genes increased 8-fold or more” value (Table 1) was 164 genes. For the same substance, the “number of genes increased 16-fold or more” value (Table 1) was 107 genes, the ABCC3 expression fc (cultured human skeletal muscle) was −1.491 and the ADM expression fc (cultured human skeletal muscle) was −1.619. The AGTRAP expression fc (cultured human skeletal muscle) was −1.467, the AHNAK expression fc (cultured human skeletal muscle) was −1.441 and the ANGPTL2 expression fc (cultured human skeletal muscle) was −1.893. The ANKFY1 expression fc (cultured human skeletal muscle) was −1.396, the APOL3 expression fc (cultured human skeletal muscle) was −1.548 and the ARHGEF19 expression fc (cultured human skeletal muscle) was −1.4. For the same substance, the ARID3A expression fc (cultured human skeletal muscle) was −1.573, the ASNS expression fc (cultured human skeletal muscle) was −1.454 and the ATF5 expression fc (cultured human skeletal muscle) was −1.826. For the same substance, the ATL3 expression fc (cultured human skeletal muscle) was −1.455, the BHLHB2 expression fc (cultured human skeletal muscle) was −1.43 and the BTG2 expression fc (cultured human skeletal muscle) was −1.573. The BTN3A2 expression fc (cultured human skeletal muscle) was −1.759, the BTN3A3 expression fc (cultured human skeletal muscle) was −1.62 and the C1RL expression fc (cultured human skeletal muscle) was −1.627. It also gave a C4orf18 expression fc (cultured human skeletal muscle) of −1.781, a C8orf13 expression fc (cultured human skeletal muscle) of −1.412 and a C14orf4 expression fc (cultured human skeletal muscle) of −1.476. The C18orf56 expression fc (cultured human skeletal muscle) was −1.619, the CA9 expression fc (cultured human skeletal muscle) was −1.526 and the CABC1 expression fc (cultured human skeletal muscle) was −1.494. The CABYR expression fc (cultured human skeletal muscle) was −1.758, the CCDC8 expression fc (cultured human skeletal muscle) was −1.453 and the CEBPD expression fc (cultured human skeletal muscle) was −1.521. It also gave a CLDN15 expression fc (cultured human skeletal muscle) of −1.554, a CNTNAP1 expression fc (cultured human skeletal muscle) of −1.744 and a COL8A1 expression fc (cultured human skeletal muscle) of −1.527. For the same substance, the CRISPLD2 expression fc (cultured human skeletal muscle) was −1.752, the CSF3 expression fc (cultured human skeletal muscle) was −1.626 and the CYGB expression fc (cultured human skeletal muscle) was −1.398. The CYP26B1 expression fc (cultured human skeletal muscle) was −1.461, the CYP27A1 expression fc (cultured human skeletal muscle) was −1.6 and the DAB2 expression fc (cultured human skeletal muscle) was −1.807. For the same substance, the DCN expression fc (cultured human skeletal muscle) was −1.673, the DDB2 expression fc (cultured human skeletal muscle) was −1.408 and the DDIT4 expression fc (cultured human skeletal muscle) was −1.522. It also gave a DDX60L expression fc (cultured human skeletal muscle) of −1.638, a DKFZp451A211 expression fc (cultured human skeletal muscle) of −1.833 and a DNAJB2 expression fc (cultured human skeletal muscle) of −1.488. For the same substance, the DUSP10 expression fc (cultured human skeletal muscle) was −1.39, the ERAP2 expression fc (cultured human skeletal muscle) was −1.605 and the ESPNL expression fc (cultured human skeletal muscle) was −1.567. For the same substance, the FADS1 expression fc (cultured human skeletal muscle) was −1.845, the FAM110B expression fc (cultured human skeletal muscle) was −1.675 and the FAM175A expression fc (cultured human skeletal muscle) was −1.54. For the same substance, the FHL2 expression fc (cultured human skeletal muscle) was −1.58, the FILIP1L expression fc (cultured human skeletal muscle) was −1.784 and the FKBP5 expression fc (cultured human skeletal muscle) was −1.758. The FOXQ1 expression fc (cultured human skeletal muscle) was −1.432, the FPR1 expression fc (cultured human skeletal muscle) was −1.603 and the FST expression fc (cultured human skeletal muscle) was −1.812. The FUCA1 expression fc (cultured human skeletal muscle) was −1.615, the GALK1 expression fc (cultured human skeletal muscle) was −1.411 and the GALNTL2 expression fc (cultured human skeletal muscle) was −1.834. For the same substance, the GAS1 expression fc (cultured human skeletal muscle) was −1.732, the GBP4 expression fc (cultured human skeletal muscle) was −1.478 and the GFPT2 expression fc (cultured human skeletal muscle) was −1.612. It also gave a GPX8 expression fc (cultured human skeletal muscle) of −1.606, a GRINA expression fc (cultured human skeletal muscle) of −1.427 and a GSDMD expression fc (cultured human skeletal muscle) of −1.763. The HAS2 expression fc (cultured human skeletal muscle) was −1.679, the HCG4 expression fc (cultured human skeletal muscle) was −1.651 and the HES4 expression fc (cultured human skeletal muscle) was −1.751. The HLA-C expression fc (cultured human skeletal muscle) was −1.788, the HLA-H expression fc (cultured human skeletal muscle) was −1.798 and the HOXC6 expression fc (cultured human skeletal muscle) was −1.539. For the same substance, the ID3 expression fc (cultured human skeletal muscle) was −1.627, the IDH3B expression fc (cultured human skeletal muscle) was −1.542 and the IFIT5 expression fc (cultured human skeletal muscle) was −1.645. The IFITM2 expression fc (cultured human skeletal muscle) was −1.713, the IGFBP5 expression fc (cultured human skeletal muscle) was −1.441 and the IHPK3 expression fc (cultured human skeletal muscle) was −1.859. It also gave an IL32 expression fc (cultured human skeletal muscle) of −1.681, an IMPA2 expression fc (cultured human skeletal muscle) of −1.437 and an IRAK2 expression fc (cultured human skeletal muscle) of −1.447. It also gave an IRAK3 expression fc (cultured human skeletal muscle) of −1.5, an ISCU expression fc (cultured human skeletal muscle) of −1.547 and an ITPRIP expression fc (cultured human skeletal muscle) of −1.763. For the same substance, the KIAA1618 expression fc (cultured human skeletal muscle) was −1.843, the KLF6 expression fc (cultured human skeletal muscle) was −1.659 and the KRT17 expression fc (cultured human skeletal muscle) was −1.626. It also gave an LAP3 expression fc (cultured human skeletal muscle) of −1.552, an LIMA1 expression fc (cultured human skeletal muscle) of −1.463 and an LOC387763 expression fc (cultured human skeletal muscle) of −1.46. The LOC389386 expression fc (cultured human skeletal muscle) was −1.521, the LOC392437 expression fc (cultured human skeletal muscle) was −1.674 and the LOC653879 expression fc (cultured human skeletal muscle) was −1.416. It also gave an LOC728431 expression fc (cultured human skeletal muscle) of −1.44, an MAMDC2 expression fc (cultured human skeletal muscle) of −1.858 and an MAOA expression fc (cultured human skeletal muscle) of −1.71. The MCEE expression fc (cultured human skeletal muscle) was −1.398, the MGC16121 expression fc (cultured human skeletal muscle) was −1.828 and the MIOS expression fc (cultured human skeletal muscle) was −1.485. It also gave an MLPH expression fc (cultured human skeletal muscle) of −1.788, an MMP3 expression fc (cultured human skeletal muscle) of −1.509 and an MOCOS expression fc (cultured human skeletal muscle) of −1.716. It also gave an MOV10 expression fc (cultured human skeletal muscle) of −1.658, an MSC expression fc (cultured human skeletal muscle) of −1.605 and an MSI2 expression fc (cultured human skeletal muscle) of −1.763.
